Results on nine compounds are retold here after PubChem BioAssay (NCI).

Molecules are shown by their SMILES.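 Dose response: 5 concentrations. Exposure: 48 h. Format: 96-well plates. Endpoint: linear interpolation; highest concentration if not reached. TGI marks complete inhibition of growth.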 Where only a bound is given, the exact number is not on record here.

Some test systems named below: CCRF-CEM leukemia; HOP-62 NSCLC; HOP-92 NSCLC; LOX IMVI melanoma; M14 melanoma; MALME-3M melanoma; NCI-H226 lung; NCI/ADR-RES ovarian; PC-3 prostate; RXF 393 renal; SF-268 CNS; SF-539 CNS; SK-MEL-28 melanoma; UACC-257 melanoma; UACC-62 melanoma; KM12 colon.
What all share (experiment): NCI tumour cell line growth inhibition, 48 h

In the case of `O=c1[nH]c(Nc2nc3ccccc3[nH]2)nc2c1CCC2`, the TGI in the assay on CCRF-CEM leukemia, with HOP-62 NSCLC, with HOP-92 NSCLC, in the assay on LOX IMVI melanoma, in the assay on M14 melanoma and in the assay on MALME-3M melanoma was > 100 µM in each case. The TGI in the assay on NCI-H226 lung, in the assay with NCI/ADR-RES ovarian, in the assay on PC-3 prostate, in the assay on RXF 393 renal, in the assay on SF-268 CNS and with SF-539 CNS was > 100 µM in each case. In addition, the TGI with SK-MEL-28 melanoma, with UACC-257 melanoma and with UACC-62 melanoma was > 100 µM in each case.
As to `Cc1[nH]n(C2=NCCN2)c(=O)c1Cc1ccccc1`, the TGI in the assay with CCRF-CEM leukemia, in the assay on HOP-62 NSCLC, with HOP-92 NSCLC, with KM12 colon, in the assay on LOX IMVI melanoma and with M14 melanoma was > 100 µM throughout. Moreover, the TGI with MALME-3M melanoma, with NCI-H226 lung, with NCI/ADR-RES ovarian, in the assay on PC-3 prostate, with RXF 393 renal and with SF-268 CNS was > 100 µM throughout. The TGI in the assay on SF-539 CNS, in the assay with UACC-257 melanoma and in the assay on UACC-62 melanoma was > 100 µM in each case.
For `COc1cc(/C=C2\N=C(c3ccccc3)N(c3nc4c(OC)ccc(OC)c4s3)C2=O)ccc1O`, the TGI in the assay with CCRF-CEM leukemia was > 100 µM; with HOP-62 NSCLC, > 100 µM; in the assay with HOP-92 NSCLC it was > 100 µM; in the assay with KM12 colon it was > 100 µM; in the assay with LOX IMVI melanoma, 53.2 µM; in the assay on M14 melanoma it was > 100 µM. In addition, the TGI in the assay with MALME-3M melanoma, in the assay with NCI/ADR-RES ovarian, in the assay with PC-3 prostate, in the assay with RXF 393 renal, in the assay with SF-268 CNS and in the assay on SF-539 CNS was > 100 µM in each case. For the same compound, the TGI with SK-MEL-28 melanoma, in the assay with UACC-257 melanoma and in the assay on UACC-62 melanoma was > 100 µM each time.
In the case of `CNc1nc2n(CCO)c(-c3ccccc3)c(-c3ccccc3)nc-2c(=O)n1`, the TGI in the assay with CCRF-CEM leukemia, with HOP-62 NSCLC, with HOP-92 NSCLC, in the assay on KM12 colon, in the assay on LOX IMVI melanoma and in the assay with M14 melanoma was > 50 µM in each case. The TGI in the assay on MALME-3M melanoma, in the assay on NCI-H226 lung, in the assay on NCI/ADR-RES ovarian, in the assay on PC-3 prostate, with RXF 393 renal and with SF-268 CNS was > 50 µM throughout. Moreover, the TGI in the assay with SF-539 CNS, in the assay on SK-MEL-28 melanoma, in the assay with UACC-257 melanoma and in the assay with UACC-62 melanoma was > 50 µM in each case.
As for `Cc1ccc(NC(=S)N/N=C(/c2ccccc2)c2ccccn2)cc1`, the TGI with HOP-62 NSCLC came out at 17.9 µM; in the assay on HOP-92 NSCLC, 8.82 µM; in the assay with KM12 colon it was 13.4 µM; in the assay on LOX IMVI melanoma, 14.9 µM; with M14 melanoma it was 2.21 µM; with MALME-3M melanoma, 9.23 µM. Moreover, the TGI in the assay on NCI-H226 lung was 2.07 µM; with NCI/ADR-RES ovarian, > 80.2 µM; with PC-3 prostate, 20.9 µM; with RXF 393 renal it was 12.7 µM; in the assay on SF-268 CNS, 1.32 µM; with SF-539 CNS, 10.3 µM. Also, the TGI in the assay with SK-MEL-28 melanoma was found to be 2.32 µM; with UACC-257 melanoma, 1.9 µM; in the assay with UACC-62 melanoma it was 10.1 µM.
For the compound `Cc1ccc(C)c(COCCOCn2ccc(N)nc2=O)c1`, the TGI in the assay with CCRF-CEM leukemia, with HOP-62 NSCLC, with HOP-92 NSCLC, with KM12 colon, in the assay on LOX IMVI melanoma and with M14 melanoma was > 100 µM each time. Also, the TGI with MALME-3M melanoma, in the assay on NCI-H226 lung, in the assay on NCI/ADR-RES ovarian, with PC-3 prostate, with RXF 393 renal and in the assay with SF-268 CNS was > 100 µM in each case. For the same compound, the TGI in the assay on SF-539 CNS, in the assay on SK-MEL-28 melanoma, in the assay with UACC-257 melanoma and in the assay on UACC-62 melanoma was > 100 µM throughout.
For the compound `CC(C)(C)c1ccc(-c2nc3ccc(Cl)cc3c(=O)o2)cc1`, the TGI in the assay with CCRF-CEM leukemia was 34.2 µM; in the assay on HOP-62 NSCLC it was 49.7 µM; with HOP-92 NSCLC it was 46.8 µM; in the assay with KM12 colon it was 19.2 µM; with LOX IMVI melanoma, 31 µM; with M14 melanoma, 49.2 µM. Moreover, the TGI worked out at 50.9 µM in the assay on MALME-3M melanoma; 67.1 µM with NCI/ADR-RES ovarian; 92.1 µM in the assay with PC-3 prostate; 87.1 µM with RXF 393 renal; 77.3 µM in the assay with SF-268 CNS; 35.8 µM in the assay with SF-539 CNS. Further, the results for the TGI in the assay with SK-MEL-28 melanoma, in the assay on UACC-257 melanoma and in the assay on UACC-62 melanoma were 57.2 µM, 65.1 µM and 56.5 µM, respectively.
`COc1ccc(O)c(/C(C)=N/NC(=S)N(C)C)c1`: the TGI in the assay on CCRF-CEM leukemia is > 100 µM; with HOP-62 NSCLC, > 100 µM; with HOP-92 NSCLC it was > 100 µM; with KM12 colon, > 100 µM; in the assay with LOX IMVI melanoma it was 22.9 µM; in the assay with M14 melanoma, > 100 µM. For the same compound, the TGI in the assay on MALME-3M melanoma, in the assay with NCI-H226 lung, in the assay with NCI/ADR-RES ovarian, with PC-3 prostate, in the assay on RXF 393 renal and in the assay with SF-268 CNS was > 100 µM throughout. The TGI was > 100 µM in the assay on SF-539 CNS, > 100 µM with SK-MEL-28 melanoma, > 100 µM in the assay with UACC-257 melanoma and > 71.6 µM in the assay on UACC-62 melanoma.
`C=C(CC[C@@H](C)[C@H]1CC[C@@]2(C)C3=C(CC[C@]12C)[C@@]1(C)CC[C@H](O)[C@@H](C)C1CC3)C(C)C` (stereo partly drawn): the TGI with CCRF-CEM leukemia was 2.22 µM; with HOP-62 NSCLC, 1.9 µM; in the assay with HOP-92 NSCLC, 2.54 µM; in the assay on KM12 colon it was 2.76 µM; in the assay on LOX IMVI melanoma, 2 µM; in the assay on M14 melanoma, 2.36 µM. The TGI in the assay with MALME-3M melanoma amounted to 2.51 µM; in the assay on NCI-H226 lung, 5.01 µM; with NCI/ADR-RES ovarian it was 3.65 µM; with PC-3 prostate, 2.28 µM; in the assay on RXF 393 renal it was 2.54 µM; with SF-539 CNS it was 2.71 µM. Moreover, the TGI amounted to 2.51 µM with SK-MEL-28 melanoma, 2.7 µM with UACC-257 melanoma and 2.61 µM in the assay on UACC-62 melanoma.
